The text below walks through data of BindingDB's records for doi:10.1016/0167-0115(94)90537-1 (Universit&Eacute, 1994).

pKi: −log10 of the molar value. Square brackets hold non-standard residues; d marks the D form. Peptide text beside a SMILES is read from it. ξ: configuration not given here. Ile(3ξ) = CCC(C)[C@H](N)C(=O)O

The assay addresses T1, VIP peptides (Rattus norvegicus, UniProt P01283).
T1 sequence (P01283 whole entry): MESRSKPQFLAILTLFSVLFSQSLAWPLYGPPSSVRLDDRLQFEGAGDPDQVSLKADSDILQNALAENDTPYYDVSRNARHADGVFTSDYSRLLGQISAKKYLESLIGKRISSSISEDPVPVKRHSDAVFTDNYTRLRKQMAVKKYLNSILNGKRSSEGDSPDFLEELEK

As a reminder, the pKi is the negative decadic logarithm of the Ki, by convention in mol/L. Low readings indicate a high Ki, high ones a low Ki.

`CC[C@H](C)[C@H](NC(=O)[C@H](CO)NC(=O)[C@H](CC(N)=O)NC(=O)[C@H](CC(C)C)NC(=O)[C@H](Cc1ccc(O)cc1)NC(=O)[C@H](CCCCN)NC(=O)[C@H](CCCCN)NC(=O)[C@@H](NC(=O)[C@H](C)NC(=O)[C@H](CCSC)NC(=O)[C@H](CCC(N)=O)NC(=O)[C@H](CCCCN)NC(=O)[C@H](CCCN=C(N)N)NC(=O)[C@H](CC(C)C)NC(=O)[C@H](CCCN=C(N)N)NC(=O)[C@@H](NC(=O)[C@H](Cc1ccc(O)cc1)NC(=O)[C@H](CC(N)=O)NC(=O)[C@H](CC(=O)O)NC(=O)[C@@H](NC(=O)[C@H](Cc1ccccc1)NC(=O)[C@@H](NC(=O)[C@H](C)NC(=O)[C@@H](N)CC(=O)O)C(C)C)[C@@H](C)O)[C@@H](C)O)C(C)C)C(=O)N[C@@H](CC(C)C)C(=O)N[C@@H](CC(N)=O)C(N)=O` [VIP(3-28)] (H-DAVFTDNYTRLRKQMAVKKYLNSILN-NH2) gave a pKi of 5.52.
As for `CC[C@H](C)[C@H](NC(=O)[C@H](C)NC(=O)[C@H](CC(=O)O)NC(=O)[C@H](CO)NC(=O)[C@@H](N)Cc1cnc[nH]1)C(=O)N[C@@H](Cc1ccccc1)C(=O)N[C@H](C(=O)N[C@@H](CCC(N)=O)C(=O)N[C@@H](CCC(N)=O)C(=O)N[C@@H](Cc1ccc(O)cc1)C(=O)N[C@@H](CO)C(=O)N[C@@H](CCCCN)C(=O)N[C@@H](CC(C)C)C(=O)N[C@@H](CC(C)C)C(=O)N[C@@H](C)C(=O)N[C@@H](CCCCN)C(=O)N[C@@H](CC(C)C)C(=O)N[C@@H](C)C(=O)N[C@@H](CC(C)C)C(=O)N[C@@H](CCC(N)=O)C(=O)N[C@@H](CCCCN)C(=O)N[C@@H](Cc1ccc(O)cc1)C(=O)N[C@@H](CC(C)C)C(=O)N[C@@H](C)C(=O)N[C@@H](CO)C(=O)N[C@H](C(=O)N[C@@H](CC(C)C)C(=O)NCC(=O)N[C@@H](CO)C(=O)N[C@@H](CCCNC(=N)N)C(=O)N[C@H](C(=O)N[C@@H](CO)C(=O)N1CCC[C@H]1C(=O)N1CCC[C@H]1C(=O)N1CCC[C@H]1C(N)=O)[C@@H](C)O)[C@@H](C)CC)[C@@H](C)O` [CAS_89468-62-2] (H-HSDAIFTQQYSKLLAKLALQKYLASILGSRTSPPP-NH2), the figure is 7.52.
For the compound `CC[C@H](C)[C@H](NC(=O)CNC(=O)[C@H](CC(=O)O)NC(=O)[C@H](CO)NC(=O)[C@@H](N)Cc1cnc[nH]1)C(=O)N[C@@H](Cc1ccccc1)C(=O)N[C@H](C(=O)N[C@@H](CC(=O)O)C(=O)N[C@@H](CO)C(=O)N[C@@H](Cc1ccc(O)cc1)C(=O)N[C@@H](CO)C(=O)N[C@@H](CCCNC(=N)N)C(=O)N[C@@H](Cc1ccc(O)cc1)C(=O)N[C@@H](CCCNC(=N)N)C(=O)N[C@@H](CCCCN)C(=O)N[C@@H](CCC(N)=O)C(=O)N[C@@H](CCSC)C(=O)N[C@@H](C)C(=O)N[C@H](C(=O)N[C@@H](CCCCN)C(=O)N[C@@H](CCCCN)C(=O)N[C@@H](Cc1ccc(O)cc1)C(=O)N[C@@H](CC(C)C)C(=O)N[C@@H](C)C(=O)N[C@@H](C)C(=O)N[C@H](C(=O)N[C@@H](CC(C)C)C(=O)NCC(=O)N[C@@H](CCCCN)C(=O)N[C@@H](CCCNC(=N)N)C(=O)N[C@@H](Cc1ccc(O)cc1)C(=O)N[C@@H](CCCCN)C(=O)N[C@@H](CCC(N)=O)C(=O)N[C@@H](CCCNC(=N)N)C(=O)N[C@H](C(=O)N[C@@H](CCCCN)C(=O)N[C@@H](CC(N)=O)C(=O)N[C@@H](CCCCN)C(N)=O)C(C)C)C(C)C)C(C)C)[C@@H](C)O` [PACAP], the pKi is 8.70.
The same measure for `CCC(C)[C@H](NC(=O)CNC(=O)[C@H](CC(=O)O)NC(=O)[C@@H](N)CO)C(=O)N[C@@H](Cc1ccccc1)C(=O)N[C@H](C(=O)N[C@@H](CC(=O)O)C(=O)N[C@@H](CO)C(=O)N[C@@H](Cc1ccc(O)cc1)C(=O)N[C@@H](CO)C(=O)N[C@@H](CCCN=C(N)N)C(=O)N[C@@H](Cc1ccc(O)cc1)C(=O)N[C@@H](CCCN=C(N)N)C(=O)N[C@@H](CCCCN)C(=O)N[C@@H](CCC(N)=O)C(=O)N[C@@H](CCSC)C(=O)N[C@@H](C)C(=O)N[C@H](C(=O)N[C@@H](CCCCN)C(=O)N[C@@H](CCCCN)C(=O)N[C@@H](Cc1ccc(O)cc1)C(=O)N[C@@H](CC(C)C)C(=O)N[C@@H](C)C(=O)N[C@@H](C)C(=O)N[C@H](C(=O)N[C@@H](CC(C)C)C(=O)NCC(=O)N[C@@H](CCCCN)C(=O)N[C@@H](CCCN=C(N)N)C(=O)N[C@@H](Cc1ccc(O)cc1)C(=O)N[C@@H](CCCCN)C(=O)N[C@@H](CCC(N)=O)C(=O)N[C@@H](CCCN=C(N)N)C(=O)N[C@H](C(=O)N[C@@H](CCCCN)C(=O)N[C@@H](CC(N)=O)C(=O)N[C@@H](CCCCN)C(N)=O)C(C)C)C(C)C)C(C)C)[C@@H](C)O` (some centres undefined) [PACAP(2-38)] (H-SDG[Ile(3ξ)]FTDSYSRYRKQMAVKKYLAAVLGKRYKQRVKNK-NH2): 7.10.
Turning to `CCC(C)[C@H](NC(=O)CN)C(=O)N[C@@H](Cc1ccccc1)C(=O)N[C@H](C(=O)N[C@@H](CC(=O)O)C(=O)N[C@@H](CO)C(=O)N[C@@H](Cc1ccc(O)cc1)C(=O)N[C@@H](CO)C(=O)N[C@@H](CCCN=C(N)N)C(=O)N[C@@H](Cc1ccc(O)cc1)C(=O)N[C@@H](CCCN=C(N)N)C(=O)N[C@@H](CCCCN)C(=O)N[C@@H](CCC(N)=O)C(=O)N[C@@H](CCSC)C(=O)N[C@@H](C)C(=O)N[C@H](C(=O)N[C@@H](CCCCN)C(=O)N[C@@H](CCCCN)C(=O)N[C@@H](Cc1ccc(O)cc1)C(=O)N[C@@H](CC(C)C)C(=O)N[C@@H](C)C(=O)N[C@@H](C)C(=O)N[C@H](C(=O)N[C@@H](CC(C)C)C(=O)NCC(=O)N[C@@H](CCCCN)C(=O)N[C@@H](CCCN=C(N)N)C(=O)N[C@@H](Cc1ccc(O)cc1)C(=O)N[C@@H](CCCCN)C(=O)N[C@@H](CCC(N)=O)C(=O)N[C@@H](CCCN=C(N)N)C(=O)N[C@H](C(=O)N[C@@H](CCCCN)C(=O)N[C@@H](CC(N)=O)C(=O)N[C@@H](CCCCN)C(N)=O)C(C)C)C(C)C)C(C)C)[C@@H](C)O` (some centres undefined) [PACAP(4-38)] (H-G[Ile(3ξ)]FTDSYSRYRKQMAVKKYLAAVLGKRYKQRVKNK-NH2), the negative-log Ki (pKi) is 6.10.
As for `[C][C][C]([C])[C@H]([N]C(=O)[C][N]C(=O)[C@H]([C][C]C([O])=O)[N]C(=O)[C@@H]([N])[C][O])C(=O)[N][C@@H]([C]c1ccccc1)C(=O)[N][C@H](C(=O)[N][C@@H]([C]C([O])=O)C(=O)[N][C@@H]([C][O])C(=O)[N][C@@H]([C]c1ccc([O])cc1)C(=O)[N][C@@H]([C][O])C(=O)[N][C@@H]([C][C][C]N=C([N])[N])C(=O)[N][C@@H]([C]c1ccc([O])cc1)C(=O)[N][C@@H]([C][C][C]N=C([N])[N])C(=O)[N][C@@H]([C][C][C][C][N])C(=O)[N][C@@H]([C][C]C([N])=O)C(=O)[N][C@@H]([C][C]S[C])C(=O)[N][C@@H]([C])C(=O)[N][C@@H]([C]([C])[C])C(=O)[N][C@@H]([C][C][C][C][N])C(=O)[N][C@@H]([C][C][C][C][N])C(=O)[N][C@@H]([C]c1ccc([O])cc1)C(=O)[N][C@@H]([C][C]([C])[C])C(=O)[N][C@@H]([C])C(=O)[N][C@@H]([C])C(=O)[N][C@@H]([C]([C])[C])C(=O)[N][C@@H]([C][C]([C])[C])C([N])=O)[C@@H]([C])[O]` [PACAP(2-27)], the figure is 7.52; as for `CCC(C)[C@H](NC(=O)CNC(=O)[C@@H](N)CC(=O)O)C(=O)N[C@@H](Cc1ccccc1)C(=O)N[C@H](C(=O)N[C@@H](CC(=O)O)C(=O)N[C@@H](CO)C(=O)N[C@@H](Cc1ccc(O)cc1)C(=O)N[C@@H](CO)C(=O)N[C@@H](CCCN=C(N)N)C(=O)N[C@@H](Cc1ccc(O)cc1)C(=O)N[C@@H](CCCN=C(N)N)C(=O)N[C@@H](CCCCN)C(=O)N[C@@H](CCC(N)=O)C(=O)N[C@@H](CCSC)C(=O)N[C@@H](C)C(=O)N[C@H](C(=O)N[C@@H](CCCCN)C(=O)N[C@@H](CCCCN)C(=O)N[C@@H](Cc1ccc(O)cc1)C(=O)N[C@@H](CC(C)C)C(=O)N[C@@H](C)C(=O)N[C@@H](C)C(=O)N[C@H](C(=O)N[C@@H](CC(C)C)C(N)=O)C(C)C)C(C)C)[C@@H](C)O` (some centres undefined) [PACAP(3-27)] (H-DG[Ile(3ξ)]FTDSYSRYRKQMAVKKYLAAVL-NH2), 5.70.
The same measure for `CC[C@H](C)[C@H](NC(=O)[C@H](CO)NC(=O)[C@H](CC(N)=O)NC(=O)[C@H](CC(C)C)NC(=O)[C@H](Cc1ccc(O)cc1)NC(=O)[C@H](CCCCN)NC(=O)[C@H](CCCCN)NC(=O)[C@@H](NC(=O)[C@H](C)NC(=O)[C@H](CCSC)NC(=O)[C@H](CCC(N)=O)NC(=O)[C@H](CCCCN)NC(=O)[C@H](CCCN=C(N)N)NC(=O)[C@H](CC(C)C)NC(=O)[C@H](CCCN=C(N)N)NC(=O)[C@@H](NC(=O)[C@H](Cc1ccc(O)cc1)NC(=O)[C@H](CC(N)=O)NC(=O)[C@H](CC(=O)O)NC(=O)[C@@H](NC(=O)[C@H](Cc1ccccc1)NC(=O)[C@@H](NC(=O)[C@H](C)NC(=O)[C@H](CC(=O)O)NC(=O)[C@H](CO)NC(=O)[C@H](Cc1cnc[nH]1)NC(C)=O)C(C)C)[C@@H](C)O)[C@@H](C)O)C(C)C)C(=O)N[C@@H](CC(C)C)C(=O)N[C@@H](CC(N)=O)C(N)=O` [Acetyl-His1-VIP]: 7.82; for `CCC(C)[C@H](NC(=O)CNC(=O)[C@@H](N)CC(=O)O)C(=O)N[C@@H](Cc1ccccc1)C(=O)N[C@H](C(=O)N[C@@H](CC(=O)O)C(=O)N[C@@H](CO)C(=O)N[C@@H](Cc1ccc(O)cc1)C(=O)N[C@@H](CO)C(=O)N[C@@H](CCCN=C(N)N)C(=O)N[C@@H](Cc1ccc(O)cc1)C(=O)N[C@@H](CCCN=C(N)N)C(=O)N[C@@H](CCCCN)C(=O)N[C@@H](CCC(N)=O)C(=O)N[C@@H](CCSC)C(=O)N[C@@H](C)C(=O)N[C@H](C(=O)N[C@@H](CCCCN)C(=O)N[C@@H](CCCCN)C(=O)N[C@@H](Cc1ccc(O)cc1)C(=O)N[C@@H](CC(C)C)C(=O)N[C@@H](C)C(=O)N[C@@H](C)C(=O)N[C@H](C(=O)N[C@@H](CC(C)C)C(=O)NCC(=O)N[C@@H](CCCCN)C(=O)N[C@@H](CCCN=C(N)N)C(=O)N[C@@H](Cc1ccc(O)cc1)C(=O)N[C@@H](CCCCN)C(=O)N[C@@H](CCC(N)=O)C(=O)N[C@@H](CCCN=C(N)N)C(=O)N[C@H](C(=O)N[C@@H](CCCCN)C(=O)N[C@@H](CC(N)=O)C(=O)N[C@@H](CCCCN)C(N)=O)C(C)C)C(C)C)C(C)C)[C@@H](C)O` (some centres undefined) [PACAP(3-38)] (H-DG[Ile(3ξ)]FTDSYSRYRKQMAVKKYLAAVLGKRYKQRVKNK-NH2): 6.10.
